Reference: patent US4169150A, “Benzodiazepine derivatives and pharmaceutical compositions containing said derivatives” (Teijin Limited, priority 1975, dated 1979)

Legend:
mice [1] = experiment: Taming activity (fighting mouse); assay type: in vivo, mouse (ddY-type male mice); conditions: PO, electroshock 100 V, 3 mA
Procedure: (§1) In the following tests, the pharmacological actions of the compounds were tested by using six mice (ddY-type male mice) for each dosage level, and ED50 values were determined. In the determination of ED50 values, the dosages of the test compounds were increased or decreased by a common ratio of 3 as required, and 3 or 4 dosage levels were used. The calculation of the ED50 values was made on the basis of the Litchfield-Wilcoxon method [J. Pharmacol. Exp. Therap., 96, 99 (1949)].
This was determined by a partially modified version of the method of Tedeschi et al. [J. Pharmacol. Exp. Therap., 125, 28 (1959)]. Two mice different in body weight by less than 1 gram were placed in a fighting device, and electroshock (100 V, 3 mA, 0.45 Hz, 0.5 sec) was applied for 3 minutes. […] Then, at intervals of 30 minutes, electroshock was applied under the above conditions, and the presence or absence of fighting reaction in the subjects was examined.

mice [2] = experiment: Muscle relaxant activity (inclined screen); assay type: in vivo, mouse (ddY-type male mice); conditions: Mus musculus, PO, plate inclined at 70°, 30 seconds, read-out: ED50 muscle relaxation, inclined screen
Procedure: as §1
(5) Muscle relaxant activity
Mice were placed on a wooden plate having a smooth surface and being inclined at an angle of 70°, and those which could stay on the initially placed positions for more than 30 seconds were selected. The selected subjects were orally administered with the test compound, and placed on the inclined plate. Examination was made as to whether the mice slipped down within 30 seconds.

mice [3] = experiment: Anti-electroshock convulsant activity (maximal electroshock); assay type: in vivo, mouse (ddY-type male mice); conditions: Mus musculus, PO, electroshock 30 mA, 200 Hz 1 hour later, read-out: ED50 anti-convulsion, maximal electroshock
Procedure: as §1
(3) Anti-electroshock convulsant activity
The subjects were orally administered with the test compound. One hour later, electroshock (30 mA, 200 Hz, 1 msec) was applied for 0.2 second through both ears, and the presence or absence of tonic extensor convulsion was examined.

mice [4] = experiment: Acute toxicity; assay type: in vivo, mouse (male ddY-type mice); conditions: one week observation
Procedure: A test compound was suspended in a 5% solution of gum arabic, and the suspension was administered to a group of 2 to 4 male ddY-type mice in a dose of 1000, 2000, and 3000 mg/kg, respectively. The conditions of the subjects were observed over a period of one week after administration, and the acute toxicity was examined.

mice [5] = experiment: Potentiation of thiopental hypnosis (sedation); assay type: in vivo, mouse (ddY-type male mice); conditions: Mus musculus, 1 h, PO, sodium thiopental 50 mg/kg i.p., sleeping time prolonged to two times
Procedure: as §1
(4) Potentiation of thiopental hypnosis
The subjects were orally administered with the test compound. One hour later, sodium thiopental in an amount of 50 mg/kg was administered intraperitoneally. The dosage which prolonged the sleeping time (the period of loss of righting reflex) to two times that in the case of a group administered only with sodium thiopental was determined.

mice [6] = experiment: Motor incoordinating activity (rotating rod); assay type: in vivo, mouse (ddY-type male mice); conditions: Mus musculus, 0.05 h, PO, 5.5 rpm, within 3 minutes, read-out: ED50 motor incoordination, rotating rod
Procedure: as §1
(6) Motor incoordinating activity
Mice which could stay for more than 3 minutes on a rotating rod having a diameter of 3.0 cm and rotating at a speed of 5.5 rpm. The subjects were orally administered with the test compound, and then at intervals of 30 minutes, they were placed on the rotating rod. Examination was made as to whether they slipped down within 3 minutes.

mice [7] = experiment: Anti-pentylene tetrazole convulsion activity; assay type: in vivo, mouse (ddY-type male mice); conditions: Mus musculus, PO, pentylene tetrazole 125 mg/kg s.c. 1 hour later, read-out: ED50 anti-convulsion, pentetrazol shock
Procedure: as §1
(1) Anti-pentylene tetrazole convulsion activity
Each of test compounds suspended in a 5% gum arabic solution was orally administered to mice. One hour later, pentylene tetrazole in an amount of 125 mg/kg was administered subcutaneously. Then, over the course of 30 minutes, the presence or absence of convulsion in the subjects was examined.

[8] = Pharmacological / central nervous system depressant actions, general statement; assay type: in vivo; conditions: anti-anxietic, sedative, hypnotic, muscle relaxant, anti-convulsant actions

SMILES	ED50 (mice [1])	ED50 (mice [2])	ED50 (mice [3])	Acute toxicity: death of the subjects (mice [4]; 3000 mg/kg)	ED50 (mice [5])	ED50 (mice [6])	ED50 (mice [7])	Acute toxicity: death of the subjects (mice [4]; 1000 mg/kg)	Pharmacological actions in words [8]
Cc1cc(C)n2c1CN=C(c1ccccc1Cl)c1cc(Cl)ccc1-2 [Compound 9, 8-chloro-6-(2-chlorophenyl)-1,3-dimethyl-4H-pyrrolo[1,2-a][1,4]benzodiazepine]	1.6 mg/kg	8.2 mg/kg	100 mg/kg	did not cause any death	0.34 mg/kg	15.5 mg/kg	1.8 mg/kg	–	–
Cc1cc(C)n2c1CN=C(c1ccccc1F)c1cc(Cl)ccc1-2 [Compound 10, 8-chloro-1,3-dimethyl-6-(2-fluorophenyl)-4H-pyrrolo[1,2-a][1,4]benzodiazepine]	8.8 mg/kg	21.5 mg/kg	> 100 mg/kg	–	2.4 mg/kg	> 30 mg/kg	5.5 mg/kg	–	–
c1ccc(C2=NCc3cccn3-c3ccccc32)cc1 [Comparison (R5=H, R6=H, R7=H), reference compound]	78 mg/kg	> 100 mg/kg	> 100 mg/kg	–	55 mg/kg	> 100 mg/kg	> 100 mg/kg	–	–
CCc1cc2n(c1C)-c1ccc(Cl)cc1C(c1ccccc1Cl)=NC2 [Compound 6, 8-chloro-6-(2-chlorophenyl)-2-ethyl-1-methyl-4H-pyrrolo[1,2-a][1,4]benzodiazepine]	5.5 mg/kg	14 mg/kg	> 30 mg/kg	–	0.8 mg/kg	23.5 mg/kg	3.4 mg/kg	–	–
CCc1cc2n(c1C)-c1ccc(Cl)cc1C(c1ccccc1F)=NC2 [Compound 7, 8-chloro-2-ethyl-6-(2-fluorophenyl)-1-methyl-4H-pyrrolo[1,2-a][1,4]benzodiazepine]	5.5 mg/kg	30 mg/kg	> 30 mg/kg	–	2.2 mg/kg	> 100 mg/kg	5.5 mg/kg	–	–
Cc1cc2n(c1C)-c1ccc(Cl)cc1C(c1ccccc1)=NC2 [Compound 5, 8-chloro-1,2-dimethyl-6-phenyl-4H-pyrrolo[1,2-a][1,4]benzodiazepine]	≥ 30 mg/kg	> 100 mg/kg	> 100 mg/kg	–	21 mg/kg	> 100 mg/kg	13.5 mg/kg	–	–
Clc1ccc2c(c1)C(c1ccccc1Cl)=NCc1cccn1-2 [Comparison (R5=Cl, R6=Cl, R7=H), reference compound]	> 100 mg/kg	> 100 mg/kg	> 100 mg/kg	–	18 mg/kg	> 100 mg/kg	> 100 mg/kg	–	–
Cc1cc2n(c1C)-c1ccc(Cl)cc1C(c1ccccc1F)=NC2 [Compound 3, 8-chloro-1,2-dimethyl-6-(2-fluorophenyl)-4H-pyrrolo[1,2-a][1,4]benzodiazepine]	17 mg/kg	> 100 mg/kg	> 100 mg/kg	–	10 mg/kg	> 100 mg/kg	10 mg/kg	–	–
Cc1cc2n(c1C)-c1ccc(Cl)cc1C(c1ccccc1Cl)=NC2 [Compound 4, 8-chloro-6-(2-chlorophenyl)-1,2-dimethyl-4H-pyrrolo[1,2-a][1,4]benzodiazepine]	4.8 mg/kg	> 100 mg/kg	> 100 mg/kg	–	2.6 mg/kg	40 mg/kg	6.5 mg/kg	–	–
CN1C(=O)CN=C(c2ccccc2)c2cc(Cl)ccc21 [Diazepam, reference compound]	1.6 mg/kg	1 mg/kg	8.8 mg/kg	–	0.3 mg/kg	–	0.7 mg/kg	caused half of the mice to die	–
Cc1ccc2n1-c1ccc(Cl)cc1C(c1ccccc1F)=NC2 [Compound 2, 8-chloro-6-(2-fluorophenyl)-1-methyl-4H-pyrrolo[1,2-a][1,4]benzodiazepine]	55 mg/kg	> 100 mg/kg	> 100 mg/kg	–	6.9 mg/kg	> 100 mg/kg	36 mg/kg	–	–
Cc1cc(C)n2c1CN=C(c1c(F)cccc1F)c1cc(Cl)ccc1-2 [Compound 11, 8-chloro-6-(2,6-difluorophenyl)-1,3-dimethyl-4H-pyrrolo[1,2-a][1,4]benzodiazepine]	1.6 mg/kg	10 mg/kg	88 mg/kg	did not cause any death	0.7 mg/kg	15.5 mg/kg	2 mg/kg	–	–
Cc1ccc2n1-c1ccc(Cl)cc1C(c1ccccc1Cl)=NC2 [Compound 1, 8-chloro-6-(2-chlorophenyl)-1-methyl-4H-pyrrolo[1,2-a][1,4]benzodiazepine]	11 mg/kg	> 100 mg/kg	> 100 mg/kg	–	2.8 mg/kg	100 mg/kg	20 mg/kg	–	–
CCc1cc2n(c1C)-c1ccc(Cl)cc1C(c1c(F)cccc1F)=NC2 [Compound 8, 8-chloro-2-ethyl-6-(2,6-difluorophenyl)-1-methyl-4H-pyrrolo[1,2-a][1,4]benzodiazepine]	12.5 mg/kg	69 mg/kg	> 30 mg/kg	–	1.9 mg/kg	> 100 mg/kg	11.2 mg/kg	–	–
Clc1ccc2c(c1)C(c1ccccc1)=NCc1cccn1-2 [Comparison (R5=Cl, R6=H, R7=H), 8-Chloro-6-phenyl-4H-pyrrolo[1,2-a][1,4]benzodiazepine, reference compound]	> 100 mg/kg	> 100 mg/kg	> 100 mg/kg	–	44 mg/kg	> 100 mg/kg	78 mg/kg	–	does not substantially show those pharmacological actions which are common to many other known benzodiazepines
